Data reported in US20020026659A1, “Developed seed and methods for making the same” (priority 1999, published 2002).

Tests used:
Assay type in all cases: in vivo
[1] = test system: Rice Cypress seeds; assay: Root elongation in germinating seeds with calcium effectors; conditions: 5 days; for Root length: 6 mM EGTA or 5 mM manganese chloride, 25° C., water 15.6
Method: (§1) To investigate other mechanisms that might disrupt calcium utilization by germinating seeds leading to adverse effects on root formation and elongation, a number of known calcium effectors were analyzed. EGTA is a well-known calcium-chelating compound which binds free calcium ions. The element, manganese, has been characterized to act as a calcium channel blocker in the cellular environment of the plasma membrane, thereby inhibiting uptake and utilization of calcium by the cell. Finally, auxins, like IBA, can disrupt calcium signaling pathways in the cell, thereby disrupting cellular developmental processes like rooting. For these experiments, seeds were germinated in the presence of these compounds, and the lengths of the roots (in mm) from 20 randomly-selected seeds (per treatment) were measured. These values were then compared to the lengths of the roots from 20 randomly-selected seeds germinated in water during the same time period and under the same environmental conditions.
Approximately 100 seeds of rice (variety Cypress obtained from LSU Rice Research Station) were germinated in 125 mL Erlenmeyer flasks containing either 40 mL water, 6 mM EGTA or 5 mM manganese chloride at 25° C. in a lighted growth room on an orbital shaker. After 5 days, root lengths were measured and recorded (see Table 1 below).

[2] = test system: Impatiens Dazzler ® Pink seeds; assay: as above; conditions: 6 mM EGTA, 5 days; for Root length: 5 mM manganese chloride or 8 ppm IBA, 25° C., 20 seeds, water 6.9; for Root growth, in words: 5 mM manganese chloride, 8 ppm IBA
Method: as §1
(§2) Approximately 100 seeds of impatiens (variety Dazzler® Pink commercially available from Ball Horticultural Company, 622 Town Road, West Chicago, Ill. 60185) were germinated in 125 mL Erlenmeyer flasks containing either 40 mL water, 6 mM EGTA, 5 mM manganese chloride or 8 ppm IBA at 25° C. in a lighted growth room on an orbital shaker. After 5 days, root lengths were measured and recorded (see Table 1 below).

[3] = test system: Pansy Baby Bingo Sky Blue primed seeds; assay: as above; conditions: 5 days; for Inhibition of root length versus water-treated seeds: 6 mM EGTA, 5 mM manganese chloride; for Root length: primed, 6 mM EGTA or 5 mM manganese chloride, 25° C., water 10.3
Method: as §1
as §2, with “100 primed” for “100”, “pansy” for “impatiens”, “Baby Bingo Sky Blue” for “Dazzler® Pink”, “EGTA or” for “EGTA,”, “chloride” for “chloride or 8 ppm IBA”

[4] = test system: Tomato Tumbler seeds; assay: as above; conditions: 5 days; for Root length: 6 mM EGTA or 5 mM manganese chloride, 25° C., water 6.5; for Root elongation, in words: 6 mM EGTA, 5 mM manganese chloride
Method: as §1
as §2, with “tomato” for “impatiens”, “Tumbler” for “Dazzler® Pink”, “EGTA or” for “EGTA,”, “chloride” for “chloride or 8 ppm IBA”

[5] = test system: Pepper Holiday Flame seeds; assay: as above; conditions: 5 days; for Root length: 6 mM EGTA or 5 mM manganese chloride, 25° C., water 6.5; for Root elongation, in words: 6 mM EGTA, 5 mM manganese chloride
Method: as §1
as §2, with “pepper” for “impatiens”, “Holiday Flame” for “Dazzler® Pink”, “EGTA or” for “EGTA,”, “chloride” for “chloride or 8 ppm IBA”

[6] = test system: Arabidopsis seeds; assay: Root development of germinating seeds with sucrose in nutrient medium; conditions: 1% (w/v) added to the nutrient medium
Description: (§3) Also different, Arabidopsis, but not impatiens, root development was sensitive to an ammonium/potassium ionic imbalance in the nutrient medium.

[7] = test system: germinating impatiens seeds; assay: as above; conditions: 1% (w/v) in the nutrient medium, liquid or solid environment
Description: as §3

[8] = test system: Vinca Coconut Cooler seeds; assay: Root elongation in germinating seeds with calcium effectors; conditions: 6 mM EGTA or 5 mM manganese chloride, 5 days, 25° C.
Method: as §1
After 5 days, root lengths were measured and recorded (see Table 1 below).

| Compound | Root length [1] | Inhibition of root elongation ([1]; 6 mM EGTA) | Root length [2] | Root growth, in words [2] | Inhibition of root length versus water-treated seeds [3] | Root length [3] | Root length [4] | Root elongation, in words [4] | Root length [5] | Root elongation, in words [5] | root development, in words [6] | root development, in words [7] | Root elongation, in words ([1]; 5 mM manganese chloride) | Root length ([8]; water 12.3) | Root length ([8]; water 12.3, listed as manganese) |
| --- | --- | --- | --- | --- | --- | --- | --- | --- | --- | --- | --- | --- | --- | --- | --- |
| O=C(O)CN(CCOCCOCCN(CC(=O)O)CC(=O)O)CC(=O)O [EGTA, ethylene glycol-bis (β-aminoethyl ether)-N,N,N′,N′-tetraacetic acid] | 3.2 mm | ~80% | 0.0 mm | totally inhibited | an even greater extent | 0.4 mm | 1.8 mm | significantly inhibited | 1.8 mm | inhibited root elongation |  |  |  |  |  |
| O=C(O)CCCc1c[nH]c2ccccc12 [IBA, indole-3-butyric acid] |  |  | 0.0 mm | totally inhibited |  |  |  |  |  |  |  |  |  |  |  |
| OC[C@H]1O[C@@](CO)(O[C@H]2O[C@H](CO)[C@@H](O)[C@H](O)[C@H]2O)[C@@H](O)[C@@H]1O [sucrose] |  |  |  |  |  |  |  |  |  |  | stimulate root development | severely inhibited |  |  |  |
| manganese chloride | 15.6 mm |  | 0.2 mm | Some minor root growth | 70-90% | 1.9 mm | 4.4 mm | Modest inhibition | 4.2 mm | inhibited root elongation |  |  | no effect | 3.0 mm | 3 mm |
